# Measurements from patent publication US20230135029A1, “COMPOSITIONS AND METHODS FOR INCREASING DIGESTIBILITY OF CALCIUM AND PHOSPHOROUS IN PIGS” (Premex, Inc., priority 2020, published 2023).
# “Also recorded” adds a separate entry of the source.
# System: late gestating sows
# Assay: Calcium, phosphorus and energy balance / apparent total tract digestibility (ATTD) study in late gestating sows fed diets with supplemental 1-α-OH-D3
# Type: in vivo, pig
# Details: for ATTD of Ca / ATTD of Dry Matter / ATTD of P / ATTD of gross energy / Absorbed Ca / Absorbed P / Fecal Ca output / Fecal P output / Fecal excretion / Urine Ca output / Urine P output: 12.5 mg/kg diet; for fecal P output, in words / urine P output, in words: vs no supplement
# Excerpt: Thirty six gestating sows were allotted to three blocks of twelve sows using a randomized complete block design. Four diets were fed to the twelve sows in each block. Thus, there were a total of nine replicate sows per diet. Sows were fed experimental diets from day 91 to 105 of gestation and were housed individually in metabolism crates during this period. Metabolism crates were equipped with a feeder, a nipple drinker, and fully slatted T-bar floors. A screen floor and a urine pan were installed below the T-bar floors to allow for collection of feces and urine, respectively. The initial five days of each period in the metabolism crates were considered the adaptation period to the diets followed by four days of fecal collection using the marker to marker procedure (Adeola, O. 2001. Digestion and balance techniques in pigs. In: A. J. Lewis and L. L. Southern, editors, Swine Nutrition. CRC Press, Washington, D.C., USA. p. 903-916.). Fecal collection was initiated when the first marker (i.e., indigo carmine) appeared in the feces and ceased when the second marker (i.e., chromic oxide) appeared (Id.). Urine was collected in buckets placed under the urine pans with 50 mL of 3N HCl from day six in the morning until day ten in the morning. Buckets were emptied daily, the weight of the collected urine was recorded, and 10% of the collected urine was stored at −20° C. until subsampling.
# Diets were formulated using a 2×2 factorial arrangement with two levels of calcium and phosphorus (i.e., 100% and 75% of the requirement; NRC, 2012) with a constant calcium to phosphorus ratio (See Table 1) without or with supplemental 1-α-OH-D3 (Alpha D3, Premex Inc., NC). The high level of calcium and phosphorus was 100% requirement for late gestation sows. The low level of calcium phosphorus was 75% of requirement for late gestation sows (NRC. 2012. Nutrient requirements of swine. 11th rev. ed. Natl. Acad. Press, Washington, D.C., USA). The corn-1-α-OH-D3 premix provided 12.5 mg Alpha D3 per kg of complete diet; 1,000 g of 1-α-OH-D3 premix was prepared by mixing 417 mg Alpha D3 and 999.583 g ground corn.
# The vitamin-micromineral premix provided the following quantities of vitamins and micro minerals per kilogram of complete diet: vitamin A as retinyl acetate, 10,622 IU; vitamin D3 as cholecalciferol, 1,660 IU; vitamin E as […], 66 IU; vitamin K as menadione nicotinamide bisulfate, 1.40 mg; thiamin as thiamine mononitrate, 1.08 mg; riboflavin, 6.49 mg; pyridoxine as pyridoxine hydrochloride, 0.98 mg; vitamin B12, 0.03 mg; D-pantothenic acid as D-calcium pantothenate, 23.2 mg; niacin, 43.4 mg; folic acid, 1.56 mg; biotin, 0.44 mg; Cu, 20 mg as copper chloride; Fe, 123 mg as iron sulfate; I, 1.24 mg as ethylenediamine dihydriodide; Mn, 59.4 mg as manganese hydroxychloride; Se, 0.27 mg as sodium selenite and selenium yeast; and Zn, 124.7 mg as zinc hydroxychloride.
# All vitamins and minerals except calcium and phosphorus were included in all diets to meet or exceed nutrient requirements (NRC, 2012). Daily feed allotments were provided in a meal that was fed at 7 AM throughout the experiment. The daily feed allowance was 1.5 times the maintenance energy requirement for gestating sows based on the initial body weight of sows (i.e., 100 kcal ME/kg BW0.75; NRC. 2012. Nutrient requirements of swine. 11th rev. ed. Natl. Acad. Press, Washington, D.C., USA). Water was available at all times.
# At the conclusion of the testing, urine samples were thawed and mixed within animal and collection period and subsamples were collected. Fecal samples were stored at −20° C. as soon as collected, and at the conclusion of the experiment, samples were dried at 65° C. in a forced air oven and finely ground through a 1-mm screen before analysis using a Wiley mill (Model 4; Thomas Scientific, Swedesboro, N.J.). […]
# [1] = high level of dietary calcium and phosphorus, P<0.05
# [2] = low level of dietary calcium and phosphorus
# [3] = supplemented vs no supplemental 1-α-OH-D3, main effect, P<0.01
# [4] = supplemented vs no supplemental 1-α-OH-D3, regardless of dietary Ca and P levels, P<0.05
structure (smiles),measurement,setting,value
"C=C1/C(=C\C=C2/CCC[C@]3(C)[C@@H]([C@H](C)CCCC(C)C)CC[C@@H]23)C[C@@H](O)C[C@@H]1O [1-α-OH-D3, 1-alpha-hydroxycholecalciferol]",ATTD of Ca,High Ca and P levels,30.25%
same,ATTD of Dry Matter,High Ca and P levels,87.72%
same,ATTD of P,High Ca and P levels,34.7%
same,ATTD of gross energy,High Ca and P levels,87.3%
same,Absorbed Ca,High Ca and P levels,6.63 grams/day
same,Absorbed P,High Ca and P levels,5.19 grams/day
same,Fecal Ca output,High Ca and P levels,15.00 grams/day
same,Fecal P output,High Ca and P levels,9.71 grams/day
same,Fecal excretion,High Ca and P levels,0.32 kg dry matter/d
same,Urine Ca output,High Ca and P levels,0.59 grams/day
same,Urine P output,High Ca and P levels,0.99 grams/day
same,ATTD of Ca,Low Ca and P levels,30.49%
same,ATTD of Dry Matter,Low Ca and P levels,88.31%
same,ATTD of P,Low Ca and P levels,29.63%
same,ATTD of gross energy,Low Ca and P levels,87.5%
same,Absorbed Ca,Low Ca and P levels,4.66 grams/day
same,Absorbed P,Low Ca and P levels,3.16 grams/day
same,Fecal Ca output,Low Ca and P levels,10.89 grams/day
same,Fecal P output,Low Ca and P levels,7.67 grams/day
same,Fecal excretion,Low Ca and P levels,0.30 kg dry matter/d
same,Urine Ca output,Low Ca and P levels,0.99 grams/day
same,Urine P output,Low Ca and P levels,0.12 grams/day
same,"fecal P output, in words",[1],decreased
same,"urine P output, in words",[1],decreased
same,"fecal P output, in words",[2],no difference
same,"urine P output, in words",[2],no difference
same,"ATTD of dry matter, in words","supplemented vs no supplemental 1-α-OH-D3, main effect",greater
same,"fecal excretion, in words","supplemented vs no supplemental 1-α-OH-D3, main effect over both Ca and P levels, P<0.05",less
same,"ATTD of calcium, in words",[3],greater; also recorded: increased
same,"ATTD of gross energy, in words",[3],increases
same,"Fecal calcium output, in words",[3],less
same,"absorbed calcium, in words",[3],greater
same,"calcium retention, in words",[3],greater; also recorded: increased
same,"concentration of digestible energy in diets, in words",[3],increases
same,"urine calcium outputs, in words",[3],increased
same,"ATTD of phosphorus, in words",[4],greater; also recorded: increased
same,"absorbed phosphorus, in words",[4],greater
same,"phosphorus retention, in words",[4],greater; also recorded: increased
